Structures can show the parent of a compound that is named as a salt. Activity calls are given as the source filed them. The calls are words filed in the database; no cut-off is given here.
What was measured:
[1] = test system: Trypanosoma brucei rhodesiense; test: Antitrypanosomal activity against Trypanosoma brucei rhodesiense; format: functional, organism-based
[2] = test system: Trypanosoma cruzi; test: Antitrypanosomal activity against Trypanosoma cruzi; format: functional, organism-based
[3] = test system: Leishmania donovani; test: Antileishmanial activity against Leishmania donovani axenic amastigotes; format: functional, organism-based
[4] = test system: Plasmodium falciparum; test: Antimalarial activity against chloroquine and pyrimethamine-resistant Plasmodium falciparum K1 by [3H]hypoxanthine incorporation assay; format: functional, organism-based
[5] = (§1) Toxicity against rat L6 cells; format: cell-based; settings: rat, L6 cells
[6] = Inhibition of beta-hematin formation by BHIA assay; format: functional
[7] = test system: Nucleic Acid; test: Displacement of methyl green dye from DNA; format: nucleic-acid assay
[8] = test system: Plasmodium falciparum; test: Antimalarial activity against Plasmodium falciparum isolates; format: functional, organism-based
[9] = test system: Plasmodium falciparum; test: Antimalarial activity against chloroquine-resistant Plasmodium falciparum W2; format: functional, organism-based
[10] = test system: THP-1; test: Cytotoxicity in human THP1 cells; format: cell-based
[11] = test system: Plasmodium falciparum; test: Antimalarial activity against chloroquine-sensitive Plasmodium falciparum D6; format: functional, organism-based
[12] = test system: Plasmodium falciparum; test: Antimalarial activity against chloroquine and pyrimethamine-resistant Plasmodium falciparum K1; format: functional, organism-based
[13] = test system: Plasmodium falciparum; test: Antimalarial activity against chloroquine-sensitive Plasmodium falciparum FCR3/Gambia; format: functional; settings: FCR-3/Gambia
[14] = test system: FM3A; test: Cytotoxicity in mouse FM3A cells; format: cell-based
[15] = Selectivity index, ratio of IC50 for mice (Mus musculus) FM3A cells to IC50 for chloroquine-sensitive Plasmodium falciparum FCR3/Gambia; format: toxicity, cell-based; settings: read-out: Ratio IC50
[16] = test system: L6; test: as §1; format: cell-based; settings: l6
[17] = test system: Plasmodium berghei; test: Antimalarial activity against Plasmodium berghei ANKA infected in Swiss mice (Mus musculus) assessed as parasitaemia level at 10 mg/kg, intraperitoneally dosed for 5 consecutive days measured 4 days post infection; settings: route intraperitoneal
[18] = test system: Plasmodium berghei; test: Antimalarial activity against Plasmodium berghei ANKA infected in Swiss mice (Mus musculus) assessed as mice (Mus musculus) survival at 10 mg/kg, intraperitoneally dosed for 5 consecutive days measured 7 days post infection; settings: ip, 168 h
[19] = test system: Plasmodium berghei; test: Antimalarial activity against Plasmodium berghei ANKA infected in Swiss mice (Mus musculus) assessed as suppression of parasitaemia at 10 mg/kg, intraperitoneally dosed for 5 consecutive days measured 4 days post infection relative to untreated control; settings: route intraperitoneal

SMILES | IC50 ([1]; Trypanosoma brucei) [µM] | IC50 ([2]; Trypanosoma cruzi) [µM] | IC50 ([3]; Leishmania donovani) [µM] | IC50 ([4]; Plasmodium falciparum, K1) [µM] | IC50 [5] [µM] | also measured
c1ccc2c(c1)cnc1[nH]ccc12 | 43.5 | 69.6 | 30.3 | 23.2 | 119 | 
Nc1nc(N)nc(Nc2ccc([As]3SCC(CO)S3)cc2)n1 (stereo not drawn) [MELARSOPROL] |  |  |  |  | 8.6 | 
Cn1cc2c3ccccc3nc-2c2ccccc21 [ISOCRYPTOLEPINE HYDROCHLORIDE] | 0.52 | 1.27 | 39.1 | 0.78 |  | inhibition [6]: Active; inhibition [7]: Active
Cn1cccc2c3ccccc3nc1-2 [listing 1 of 2 here] |  | 64.5 |  | 13 | 236 | IC50 [1]: 34 µM; IC50 [3]: > 95 µM
C[n+]1ccc2c(c1)[nH]c1ccccc12 [listing 1 of 2 here] |  |  |  |  |  | inhibition [6]: inactive
Cn1ccc2nc3ccccc3c-2c1 [listing 1 of 2 here] |  | > 160 | > 160 | 2.1 | 390 | IC50 [1]: 138 µM
Cn1ccc2c3ccccc3nc-2c1 | 93.7 | > 160 | 92.1 | 0.45 | > 490 | inhibition [6]: inactive; IC50 [7]: > 3800 µM
C[n+]1ccc2c(c1)[nH]c1ccccc12 [listing 2 of 2 here] | 155 | > 95 | 52.3 | 0.34 | > 290 | IC50 [7]: > 2800 µM
Cn1cc2ccccc2c2c3ccccc3nc1-2.I | 2.59 | 11.9 |  |  | 1.5 | IC50 [3]: 6.6 µM; IC50 [4]: 0.032 µM; IC50 [6]: 3.32 molar equivalents; IC50 [7]: 87 µM
C=Cc1ncc(OC)c2c1[nH]c1ccc(O)cc12 |  |  |  |  |  | IC50 [8]: 13.7 µM
CC1NCCc2c1[nH]c1ccccc21 (stereo not drawn) [TETRAHYDROHARMAN] |  |  |  |  |  | IC50 [9]: 7.5 µM; IC50 [10]: 403 µM; IC50 [11]: 20.1 µM
C[n+]1ccc2c(c1)[nH]c1ccccc12 [NORMELINONINE F HYDROCHLORIDE] |  |  |  |  |  | IC50 [12]: 13.6 µM
Cc1nccc2c1[nH]c1ccccc12 [HARMAN] |  |  |  |  |  | IC50 [9]: 7.1 µM; IC50 [10]: 121 µM; IC50 [11]: 12.1 µM
Cn1cc2nccc-2c2ccccc21 | 31.5 | 76.8 | 169 | 3.2 | 160 | 
C[n+]1c2ccccc2cc2[n-]c3ccccc3c21 [CRYPTOLEPINE HYDROCHLORIDE] | 0.6 | 0.22 | 2.68 | 0.12 |  | inhibition [6]: Active; inhibition [7]: Active
CCc1c2[nH]c3ccccc3c2c(OC)c[n+]1C |  |  |  |  |  | IC50 [13]: < 1 µM; IC50 [14]: > 10 µM; selectivity ratio [15]: > 32
Cn1cc2ccccc2c2nc3ccccc3c1-2 [listing 1 of 2 here] |  |  | 15.5 | 0.64 | 1.48 | IC50 [1]: 0.72 µM; IC50 [2]: 1.66 µM
Cn1cccc2c3ccccc3nc1-2 [listing 2 of 2 here] | 21.3 |  | > 160 |  |  | IC50 [2]: 89.2 µM; IC50 [4]: 14.7 µM; IC50 [16]: 300 µM

SMILES | IC50 ([1]; Trypanosoma brucei) [µM] | IC50 ([2]; Trypanosoma cruzi) [µM] | IC50 ([3]; Leishmania donovani) [µM] | IC50 ([4]; Plasmodium falciparum, K1) [µM] | IC50 [5] [µM] | also measured
Cn1c2nc3ccccc3c-2cc2ccccc21 [NEOCRYPTOLEPINE HYDROCHLORIDE] | 2.23 | 2.01 | 49.5 | 2.61 |  | inhibition [6]: Active; inhibition [7]: Active
c1ccc2c(c1)ncc1[nH]ccc12 | 25.5 | 81 | 183 | 6.4 | 173 | 
CCCCCCCCCCCCCCCCOP(=O)([O-])OCC[N+](C)(C)C [MILTEFOSINE] |  |  |  |  | 58.4 | 
C[n+]1cc2[nH]c3ccccc3c2c2ccccc21 [ISONEOCRYPTOLEPINE HYDROCHLORIDE] | 6.48 | 21 | 75.4 | 0.23 |  | inhibition [6]: Active; inhibition [7]: Active
COc1ccc2c3cc[n+](C)c(C)c3n(C)c2c1 |  |  |  |  |  | IC50 [13]: < 1 µM; IC50 [14]: > 10 µM; selectivity ratio [15]: > 32
Cn1cc2ccccc2c2nc3ccccc3c1-2 [listing 2 of 2 here] | 0.55 | 1.53 |  |  |  | IC50 [3]: 16.8 µM; IC50 [4]: 0.57 µM; IC50 [16]: 2.2 µM
Cn1cccc2nc3ccccc3c1-2 [listing 1 of 2 here] | 86.1 |  |  | 0.38 | 132 | IC50 [2]: > 95 µM; IC50 [3]: > 95 µM
Cn1cccc2nc3ccccc3c1-2 [listing 2 of 2 here] |  | > 160 | > 160 |  |  | IC50 [1]: 138 µM; IC50 [4]: 0.48 µM; IC50 [16]: 179 µM
Cn1cc2ccccc2c2c3ccccc3nc1-2 |  |  | 4.8 | 0.04 |  | IC50 [1]: 3.33 µM; IC50 [2]: 20.7 µM; IC50 [16]: 1.3 µM; IC50 [6]: 2.76 molar equivalents; IC50 [7]: 81 µM
Cn1cc2ccccc2c2ccnc1-2 | 8.4 | 40.9 | 97.5 | 7.8 | 153 | 
Cc1c2[nH]c3ccccc3c2cc[n+]1C |  |  |  |  |  | selectivity ratio [15]: 18; IC50 [12]: 5.1 µM
CCN(CC)CCCC(C)Nc1ccnc2cc(Cl)ccc12 (stereo not drawn) [CHLOROQUINE] |  |  |  |  | 43.1 | Activity [17]: 5.24%; survival at 10 mg/kg [18]: 100%; Activity [19]: 86.3%
C=Cc1c2[nH]c3ccccc3c2c(OC)c[n+]1CC |  |  |  |  |  | IC50 [13]: < 1 µM; IC50 [14]: > 10 µM; selectivity ratio [15]: > 32
COc1c[n+](C)c(C)c2[nH]c3ccccc3c12 |  |  |  |  |  | IC50 [13]: < 1 µM; IC50 [14]: > 10 µM; selectivity ratio [15]: > 32
Cn1ccc2nc3ccccc3c-2c1 [listing 2 of 2 here] | 109 |  |  |  |  | IC50 [2]: > 95 µM; IC50 [3]: > 95 µM; IC50 [4]: 2.4 µM; IC50 [16]: > 290 µM
C=Cc1ncc(OC)c2c1[nH]c1ccccc12 |  |  |  |  |  | IC50 [8]: 10.7 µM
O=C(Cn1ccnc1[N+](=O)[O-])NCc1ccccc1 [BENZNIDAZOLE] |  | 1.25 |  |  | > 90 | 
